{"source": "patent US7732440B2", "about": "“Phenothiazin derivatives, method for the production thereof and use thereof as pharmaceuticals” (Sanofi-Aventis, priority 2007, dated 2010)", "target": "T1, Human glucokinase (Homo sapiens, UniProt P35557)", "T1 construct": "the glucokinase polypeptide beginning with Ser-6 is obtained; GST (N, cleaved yes); made in house; host or cells: E. coli BL21", "T1 sequence (P35557 6-464 isoform P35557-3 limits assumed)": "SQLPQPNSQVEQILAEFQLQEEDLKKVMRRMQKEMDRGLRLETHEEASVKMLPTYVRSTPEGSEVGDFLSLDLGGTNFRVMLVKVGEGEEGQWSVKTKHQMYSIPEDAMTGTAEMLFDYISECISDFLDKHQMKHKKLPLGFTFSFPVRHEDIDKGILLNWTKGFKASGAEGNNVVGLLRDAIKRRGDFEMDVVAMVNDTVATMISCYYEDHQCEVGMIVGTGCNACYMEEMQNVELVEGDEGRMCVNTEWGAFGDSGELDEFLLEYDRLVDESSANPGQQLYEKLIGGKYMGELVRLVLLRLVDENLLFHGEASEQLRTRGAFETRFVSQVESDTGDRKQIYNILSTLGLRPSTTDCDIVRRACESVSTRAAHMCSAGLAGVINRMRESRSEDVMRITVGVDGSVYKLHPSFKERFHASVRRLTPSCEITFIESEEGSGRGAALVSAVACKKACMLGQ", "experiment": "Enzymatic test of glucokinase activators (coupled optical test)", "assay_type": "biochemical", "settings": "5 mM glucose; for Concentration raising glucokinase activity by 50% (EC150): concentration of test compound which increases the enzymatic activity by 50% (0 μM = 100%), 25° C., 1 mM ATP, pH 7; for Fold induction: maximum fold stimulation: highest change in extinction in the concentration range 0.1-100 μM relative to change without test substance", "description": "Enzymatic Test of Glucokinase Activators\nHuman glucokinase is expressed as a fusion protein with glutathione S-transferase (GST) in E. coli BI21 and purified by affinity chromatography. […] is cleaved off by digestion with factor Xa, and the glucokinase polypeptide beginning with Ser-6 is obtained. The latter is purified chromatographically. At room temperature, a typical glucokinase preparation has a specific activity of 30 U/mg protein.\nThe activity of glucokinase and the effect of compounds on this activity are determined by a coupled optical test at 25° C. The test volume is 100 μl. The test composition is: 25 mM HEPES/NaOH (Merck; #110110) pH 7, 25 mM KCl (Merck; #04933), 2 mM MgCl2 (Merck; #05833), 1 mM dithiothreitol (Merck; #112013), 1 mM NAD (Sigma; #N1511), 5 mM glucose (Merck; #108337), 1 mM ATP (Sigma; #A2383), 0.1% (w/v) bovine serum albumin (Merck; #112018), 0.002 U glucokinase preparation and 3.2 U glucose 6-phosphate dehydrogenase (Sigma; #G8529). The mixture furthermore contains a test compound. The test compounds are in each case dissolved in 10 mM DMSO and are tested at final concentrations of 0 μM, 0.1 μM, 0.3 μM, 1 μM, 3 μM, 10 μM, 30 μM and 100 μM. The final concentration of DMSO in the test is 1% (v/v). The reaction is started by addition of ATP. The absorption of the mixture at 340 nm is determined immediately after the addition of ATP and then 25 min later using a multiwell plate photometer (from Labsystems, Multiskan Ascent). The change of the absorption during this period is calculated.\nThe crude data of the changes in extinction are transferred into a Microsoft Excel file. The value for 0 μM test compound is assigned to be 100%. Dose/activity curves are calculated using the program XL.Fit according to the instructions of the manufacturer (IDBS). The concentration of a test compound which increases the enzymatic activity by 50% is defined as EC150. The maximum fold stimulation corresponds to the ratio of the highest change in extinction in the concentration range of a test compound to the change of the absorption without test substance.", "data": [{"smiles": "CCOC(=O)c1ccc2c(c1)S(=O)(=O)c1ccc(C(CC3CCC(=O)C3)C(=O)Nc3ccn(C)n3)cc1N2C", "note": "(centres unmarked) [Example 42, Ethyl 10-methyl-8-[1-(1-methyl-1H-pyrazol-3-ylcarbamoyl)-2-(3-oxocyclopentyl)-ethyl]-5,5-dioxo-5,10-dihydrophenothiazine-3-carboxylate]", "values": [{"measurement": "Concentration raising glucokinase activity by 50% (EC150)", "result": 1200, "unit": "nM"}, {"measurement": "Fold induction", "result": 3.6}]}, {"smiles": "Cn1ccc(NC(=O)C(CC2CC=C(F)CC2)c2ccc3c(c2)Nc2ccccc2S3(=O)=O)n1", "note": "(centres unmarked) [Example 54, 2-(5,5-Dioxo-5,10-dihydrophenothiazin-2-yl)-3-(4-fluorocyclohex-3-enyl)-N-(1-methyl-1H-pyrazol-3-yl)propionamide]", "values": [{"measurement": "Concentration raising glucokinase activity by 50% (EC150)", "result": 1000, "unit": "nM"}, {"measurement": "Fold induction", "result": 4.5}]}, {"smiles": "CN1c2ccccc2S(=O)(=O)c2ccc(C(CC3CCOCC3)C(=O)Nc3ccn(C)n3)cc21", "note": "(centres unmarked) [Example 5, 2-(10-Methyl-5,5-dioxo-5,10-dihydrophenothiazin-2-yl)-N-(1-methyl-1H-pyrazol-3-yl)-3-(tetrahydropyran-4-yl)propionamide]", "values": [{"measurement": "Concentration raising glucokinase activity by 50% (EC150)", "result": 2100, "unit": "nM"}, {"measurement": "Fold induction", "result": 4.4}]}, {"smiles": "Cn1ccc(NC(=O)C(C[C@H]2CCC(=O)C2)c2ccc3c(c2)Nc2ccccc2S3(=O)=O)n1", "note": "(stereo partly drawn) [Example 46, 2-(5,5-Dioxo-5,10-dihydrophenothiazin-2-yl)-N-(1-methyl-1H-pyrazol-3-yl)-3-((R)-3-oxocyclopentyl)propionamide]", "values": [{"measurement": "Concentration raising glucokinase activity by 50% (EC150)", "result": 600, "unit": "nM"}, {"measurement": "Fold induction", "result": 5.0}]}, {"smiles": "CN1c2ccccc2S(=O)(=O)c2ccc(C(CC3CCOCC3)C(=O)Nc3nccs3)cc21", "note": "(centres unmarked) [Example 1, 2-(10-Methyl-5,5-dioxo-5,10-dihydrophenothiazin-2-yl)-3-(tetrahydropyran-4-yl)-N-thiazol-2-ylpropionamide]", "values": [{"measurement": "Concentration raising glucokinase activity by 50% (EC150)", "result": 4200, "unit": "nM"}, {"measurement": "Fold induction", "result": 2.0}]}, {"smiles": "CN1c2ccccc2S(=O)(=O)c2ccc(C(CC3CCCC3)C(=O)Nc3nccs3)cc21", "note": "(centres unmarked) [Example 9, 3-Cyclopentyl-2-(10-methyl-5,5-dioxo-5,10-dihydrophenothiazin-2-yl)-N-thiazol-2-yl-propionamide]", "values": [{"measurement": "Concentration raising glucokinase activity by 50% (EC150)", "result": 2200, "unit": "nM"}, {"measurement": "Fold induction", "result": 2.8}]}, {"smiles": "Cc1ccc(NC(=O)C(CC2CCOCC2)c2ccc3c(c2)N(C)c2ccccc2S3(=O)=O)nn1", "note": "(centres unmarked) [Example 6, 2-(10-Methyl-5,5-dioxo-5,10-dihydrophenothiazin-2-yl)-N-(6-methylpyridazin-3-yl)-3-(tetrahydropyran-4-yl)propionamide]", "values": [{"measurement": "Concentration raising glucokinase activity by 50% (EC150)", "result": 15500, "unit": "nM"}, {"measurement": "Fold induction", "result": 2.1}]}, {"smiles": "COc1ccc2nc(NC(=O)C(CC3CCOCC3)c3ccc4c(c3)N(C)c3ccccc3S4(=O)=O)sc2n1", "note": "(centres unmarked) [Example 15, N-(5-Methoxy-thiazolo[5,4-b]pyridin-2-yl)-2-(10-methyl-5,5-dioxo-5,10-dihydrophenothiazin-2-yl)-3-(tetrahydropyran-4-yl)propionamide]", "values": [{"measurement": "Concentration raising glucokinase activity by 50% (EC150)", "result": 900, "unit": "nM"}, {"measurement": "Fold induction", "result": 5.0}]}, {"smiles": "CN1c2ccccc2S(=O)(=O)c2ccc(C(CC3CCC(=O)CC3)C(=O)Nc3ccn(C)n3)cc21", "note": "(centres unmarked) [Example 36, 2-(10-Methyl-5,5-dioxo-5,10-dihydrophenothiazin-2-yl)-N-(1-methyl-1H-pyrazol-3-yl)-3-(4-oxocyclohexyl)propionamide]", "values": [{"measurement": "Concentration raising glucokinase activity by 50% (EC150)", "result": 500, "unit": "nM"}, {"measurement": "Fold induction", "result": 4.0}]}, {"smiles": "COc1ccc2nc(NC(=O)C(C[C@H]3CCC(=O)C3)c3ccc4c(c3)N(C)c3ccccc3S4(=O)=O)sc2n1", "note": "(stereo partly drawn) [Example 41, N-(5-Methoxythiazolo[5,4-b]pyridin-2-yl)-2-(10-methyl-5,5-dioxo-5,10-dihydrophenothiazin-2-yl)-3-((R)-3-oxocyclopentyl)propionamide]", "values": [{"measurement": "Concentration raising glucokinase activity by 50% (EC150)", "result": 700, "unit": "nM"}, {"measurement": "Fold induction", "result": 3.9}]}]}
